In patent publication US20070254939A1, “Formulations Containing Amide Derivatives of Carboxylic Acid NSAIDS for Topical Administration to the Eye” (ALCON, INC., priority 2006, published 2007):

System: mitochondria prepared from the livers of male Sprague Dawley rats
Test: in vitro mitochondrial swelling assay (light scattering at 540 nm)
Assay type: biochemical, rat
Details: for swelling response of non-peroxide stressed (control) mitochondria: normal, unstressed mitochondria, test article 100 μM, time course over 17 minutes, FIG. 1
Description: To evaluate the effects of sulfite salts on carboxylic acid NSAID-induced mitochondrial swelling, the following assay was used. […] An initial low speed centrifugation (600×g for 10 minutes) was conducted to remove nuclei and cell debris. The pellet was discarded and the supernatant was centrifuged at 7,740×g for 10 minutes to obtain a crude mitochondrial pellet. […] The suspension was centrifuged at 7,740×g for 10 minutes. The mitochondrial pellet was suspended in 30 mL of ice-cold wash buffer and centrifuged at 10,100×g for 10 minutes. […] The mitochondrial suspension was placed on ice for immediate assay. An aliquot of the mitochondrial preparation was added to a 5.0 mL cuvette (1.0 cm path length) that contained 2.95 mL of iso-osmotic HEPES buffer, supplemented with sodium succinate and rotenone. An appropriate aliquote of the mitochondrial suspension was added to the cuvette and swelling was monitored by light scattering at 540 nm for a period of 17 minutes. When drug effects were examined, mitochondria were initially exposed for a period of one minute to the test article before the addition of either buffer, t-BOOH (150 μM) or sodium sulfite (300 μM).

SMILES	swelling response of non-peroxide stressed (control) mitochondria	swelling response of t-BOOH-stressed mitochondria (t-BOOH 150 μM, diclofenac 30, 100 or 300 μM, FIG. 2)	effect of sulfite salt on NSAID-induced swelling of peroxide-stressed mitochondria (t-BOOH 150 μM, sodium sulfite 300 μM with 60 μM amfenac or 60 μM bromfenac, FIG. 3)
Nc1c(CC(=O)O)cccc1C(=O)c1ccccc1 [amfenac]	do not affect swelling	–	–
Nc1c(CC(=O)O)cccc1C(=O)c1ccc(Br)cc1 [bromfenac]	do not affect swelling	–	–
O=S([O-])[O-].[Na+].[Na+] [sodium sulfite]	–	–	mitochondrial swelling is prevented

The next lines start with results.

swelling response of non-peroxide stressed (control) mitochondria	swelling response of t-BOOH-stressed mitochondria (t-BOOH 150 μM, diclofenac 30, 100 or 300 μM, FIG. 2)	SMILES	effect of sulfite salt on NSAID-induced swelling of peroxide-stressed mitochondria (t-BOOH 150 μM, sodium sulfite 300 μM with 60 μM amfenac or 60 μM bromfenac, FIG. 3)
do not affect swelling	promote the swelling of mitochondria	O=C(O)Cc1ccccc1Nc1c(Cl)cccc1Cl [diclofenac]	–
do not affect swelling	–	CC(C)Cc1ccc(C(C)C(=O)O)cc1 (stereo not drawn) [ibuprofen]	–
